According to article PMC11428031, “Discovery of selective LATS inhibitors via scaffold hopping: enhancing drug-likeness and kinase selectivity for potential applications in regenerative medicine” (RSC Medicinal Chemistry, 2024):
Values after ≈ are worked out from the molar mass of the structure shown.

Key:
in vitro [1] = details: mouse, liver microsomes
[2] = Liver microsomal phase I stability, human; details: for HLM phase I stability (% remaining after 30 min): human liver microsomes 0.5 mg/mL, 1 μM compound, NADPH, 37 °C, mean ± SD, n=3; for Stability in human liver microsomes relative to 1, Truli: experimental values of Table 4
in vitro [3] = details: human, liver microsomes
physchem = details: D2O (deuterium oxide)
YSK4 = molecular target: T1, YSK4 (Homo sapiens, UniProt Q56UN5); test: KINOMEscan scanMAX binding, YSK4; details: 100 nM compound; lower = stronger interaction
T1 sequence (Q56UN5 1-1328): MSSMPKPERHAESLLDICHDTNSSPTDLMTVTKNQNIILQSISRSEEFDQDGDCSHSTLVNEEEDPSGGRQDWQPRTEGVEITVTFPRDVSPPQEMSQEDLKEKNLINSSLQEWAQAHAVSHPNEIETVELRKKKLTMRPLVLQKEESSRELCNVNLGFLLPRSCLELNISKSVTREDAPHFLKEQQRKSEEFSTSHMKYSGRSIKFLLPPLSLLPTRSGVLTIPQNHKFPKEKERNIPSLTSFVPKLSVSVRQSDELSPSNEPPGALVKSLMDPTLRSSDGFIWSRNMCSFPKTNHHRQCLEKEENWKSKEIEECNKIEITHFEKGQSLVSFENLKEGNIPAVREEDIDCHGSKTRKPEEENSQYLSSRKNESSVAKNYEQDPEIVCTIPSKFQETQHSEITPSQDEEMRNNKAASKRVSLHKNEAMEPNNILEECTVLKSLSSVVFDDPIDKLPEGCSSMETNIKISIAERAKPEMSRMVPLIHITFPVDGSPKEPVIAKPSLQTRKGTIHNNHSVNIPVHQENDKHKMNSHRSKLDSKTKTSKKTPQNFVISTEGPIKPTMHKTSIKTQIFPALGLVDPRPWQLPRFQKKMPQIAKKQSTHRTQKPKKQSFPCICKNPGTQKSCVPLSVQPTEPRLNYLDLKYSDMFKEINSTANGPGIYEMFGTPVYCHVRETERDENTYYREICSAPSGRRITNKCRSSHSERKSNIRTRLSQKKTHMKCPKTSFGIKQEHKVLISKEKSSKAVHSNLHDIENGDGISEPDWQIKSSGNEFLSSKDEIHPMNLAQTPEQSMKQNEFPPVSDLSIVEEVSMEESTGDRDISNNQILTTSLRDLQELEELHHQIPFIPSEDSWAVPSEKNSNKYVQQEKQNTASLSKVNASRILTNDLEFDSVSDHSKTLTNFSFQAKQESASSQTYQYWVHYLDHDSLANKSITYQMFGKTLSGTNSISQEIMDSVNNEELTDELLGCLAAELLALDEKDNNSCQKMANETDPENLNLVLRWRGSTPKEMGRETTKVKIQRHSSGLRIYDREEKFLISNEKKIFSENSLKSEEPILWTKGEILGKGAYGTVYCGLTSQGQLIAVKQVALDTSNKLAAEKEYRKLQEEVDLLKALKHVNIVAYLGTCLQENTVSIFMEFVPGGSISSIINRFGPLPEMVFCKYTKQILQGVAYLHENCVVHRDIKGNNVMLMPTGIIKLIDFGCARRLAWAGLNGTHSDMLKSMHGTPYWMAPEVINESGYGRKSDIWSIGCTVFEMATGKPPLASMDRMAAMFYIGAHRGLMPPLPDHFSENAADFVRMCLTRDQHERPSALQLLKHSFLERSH

[4] = In vivo pharmacokinetics in male mice; details: for Ft: IP; for half-life: T1/2, male mice; for clearance: CL
Description: All animal procedures were performed in accordance with the Guidelines for Care and Use of Laboratory Animals of Korea Research Institute of Chemical Technology and approved by the Animal Ethics Committee of Korea Research Institute of Chemical Technology.

DMPK = molecular target: T2, DMPK (Homo sapiens, UniProt Q09013); test: KINOMEscan scanMAX binding, DMPK; details: 100 nM compound; lower = stronger interaction
T2 sequence (Q09013 1-629): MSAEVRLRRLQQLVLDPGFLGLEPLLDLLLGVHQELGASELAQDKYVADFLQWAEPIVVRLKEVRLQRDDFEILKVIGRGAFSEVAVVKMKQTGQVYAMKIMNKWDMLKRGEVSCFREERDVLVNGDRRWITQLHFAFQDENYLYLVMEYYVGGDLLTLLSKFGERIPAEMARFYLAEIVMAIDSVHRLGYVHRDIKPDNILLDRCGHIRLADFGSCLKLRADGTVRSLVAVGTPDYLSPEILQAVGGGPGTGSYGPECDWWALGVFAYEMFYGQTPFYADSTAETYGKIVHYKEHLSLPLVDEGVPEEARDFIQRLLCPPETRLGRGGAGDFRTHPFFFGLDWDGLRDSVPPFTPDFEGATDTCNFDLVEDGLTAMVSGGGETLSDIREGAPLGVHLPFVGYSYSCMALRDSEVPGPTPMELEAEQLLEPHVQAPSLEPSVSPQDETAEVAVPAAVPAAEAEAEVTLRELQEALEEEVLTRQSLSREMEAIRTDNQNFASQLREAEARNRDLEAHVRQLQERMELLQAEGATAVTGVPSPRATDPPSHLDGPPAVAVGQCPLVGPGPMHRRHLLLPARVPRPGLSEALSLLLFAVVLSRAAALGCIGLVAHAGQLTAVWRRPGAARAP

468 kinases = test: KINOMEscan scanMAX kinase profiling, selectivity over the panel; type: binding; details: 100 nM, of 403 non-mutant kinases
[5] = Liver microsomal phase I stability, mouse; details: mouse liver microsomes 0.5 mg/mL, 1 μM compound, NADPH, 37 °C, mean ± SD, n=3
321 protein kinases = tested on: 321 protein kinases; set-up: method as in PMID 35231442; details: out of 321 tested protein kinases; cited from earlier work
[6] = male, mouse, plasma, ip, 10 mg/kg
[7] = male, mouse, plasma, iv, 5 mg/kg
[8] = male, mouse, plasma, iv, 5 mg/kg, male mice
[9] = male, mouse, plasma, po, 20 mg/kg

| Compound | remaining at 0.5 h, 1 μM (in vitro [1]) | HLM phase I stability (% remaining after 30 min) [2] | remaining at 0.5 h, 1 μM (in vitro [3]) | solubility at 24 h (physchem) | Stability in human liver microsomes relative to 1, Truli [2] | Ft ([4]; male mice, 10 mg/kg) | AUC(0-inf) [4, 6] | AUC(0-t) [4, 6] | Cmax [4, 6] | MRT inf [4, 6] | MRT last [4, 6] | Tmax [4, 6] | half-life [4, 6] | AUC(0-inf) [4, 7] | AUC(0-t) [4, 7] | MRT inf [4, 7] | MRT last [4, 7] | Vd [4, 7] | clearance [4, 8] | half-life [4, 7] | further results |
| --- | --- | --- | --- | --- | --- | --- | --- | --- | --- | --- | --- | --- | --- | --- | --- | --- | --- | --- | --- | --- | --- |
| O=C(/N=c1\sccn1Cc1ccccc1)c1c[nH]c2ncccc12 [1 (Truli), (Z)-N-(3-benzylthiazol-2(3H)-ylidene)-1H-pyrrolo[2,3-b]pyridine-3-carboxamide, reference compound] | 0.18 ± 0.03% | 2.7 ± 0.5% | 2.68 ± 0.46% | 140 ± 26 µg/mL (≈ 419 µM) |  |  |  |  |  |  |  |  |  |  |  |  |  |  |  |  |  |
| O=C(/N=c1\sccn1Cc1ccccc1)c1n[nH]c2ncccc12 [Compound 5l, (Z)-N-(3-Benzylthiazol-2(3H)-ylidene)-1H-pyrazolo[3,4-b]pyridine-3-carboxamide] | 0.69 ± 0.17% | 35 ± 1.3% | 34.9 ± 1.31% | 290 ± 15 µg/mL (≈ 865 µM) | more than ten times higher stability | 74.36% | 4390 ± 710 ng·h/mL | 4370 ± 720 ng·h/mL | 7300 ± 1880 ng/mL | 1.14 ± 0.21 h | 0.97 ± 0.12 h | 0.08 h | 5.59 ± 0.88 h | 2960 ± 150 ng·h/mL | 2940 ± 180 ng·h/mL | 1.04 ± 0.71 h | 0.71 ± 0.25 h | 1.8 ± 1.32 L/kg | 28.2 mL/min/kg | 6.56 ± 3.32 h | %Ctrl @ 100 nM, YSK4 (YSK4): 7.1 %Ctrl; Ft (bioavailability, F) ([4]; male mice, PO, 20 mg/kg): 43.89%; AUC(0-inf) [4, 9]: 5160 ± 590 ng·h/mL; AUC(0-t) [4, 9]: 5150 ± 590 ng·h/mL; Cmax [4, 9]: 5740 ± 920 ng/mL; MRT inf [4, 9]: 1.56 ± 0.1 h; MRT last [4, 9]: 1.5 ± 0.1 h; Tmax [4, 9]: 0.25 h; half-life [4, 9]: 3.46 ± 0.33 h; %Ctrl @ 100 nM, DMPK (DMPK): 6.5 %Ctrl; Number hits, S(1) (468 kinases; %Ctrl <1): 0; Number hits, S(10) (468 kinases; %Ctrl <10): 2; Number hits, S(35) (468 kinases; %Ctrl <35): 3 |
| O=C(/N=c1\sccn1Cc1ccccc1)c1c[nH]c2ncncc12 [Compound 5k, (Z)-N-(3-Benzylthiazol-2(3H)-ylidene)-7H-pyrrolo[2,3-d]pyrimidine-5-carboxamide] | 13.8 ± 0.55% | 43 ± 1.1% | 43.1 ± 1.1% | 680 ± 89 µg/mL (≈ 2030 µM) | more than ten times higher stability | 131.71% | 11500 ± 3250 ng·h/mL | 11400 ± 3280 ng·h/mL | 9510 ± 2030 ng/mL | 1.27 ± 0.15 h | 1.14 ± 0.15 h | 0.5 h | 5.24 ± 2.45 h | 4340 ± 2160 ng·h/mL | 4340 ± 2170 ng·h/mL | 1.49 ± 1.72 h | 1.43 ± 1.65 h | 3 ± 4.42 L/kg | 23.5 mL/min/kg | 2.86 ± 1.88 h | MLM phase I stability (% remaining after 30 min) [5]: 14 ± 0.6%; AUC(0-inf) [4, 9]: 25800 ± 7970 ng·h/mL; AUC(0-t) [4, 9]: 25700 ± 8010 ng·h/mL; Cmax [4, 9]: 13300 ± 2820 ng/mL; MRT inf [4, 9]: 1.81 ± 0.94 h; MRT last [4, 9]: 1.74 ± 0.99 h; Tmax [4, 9]: 0.42 ± 0.14 h; bioavailability [4, 9]: 148%; half-life [4, 9]: 4.25 ± 3.57 h |
| CC/C(=N\NC(=O)NCc1cccc(O)c1)c1ccc(O)c(C)c1O [3 (GA-017)] |  |  |  |  |  |  |  |  |  |  |  |  |  |  |  |  |  |  |  |  | Number of protein kinases against which high potency was exhibited (321 protein kinases): 16 |
